Data taken from patent publication US8604061B2, “2-aminooxazolines as TAAR1 ligands” (Hoffmann-La Roche Inc., priority 2007, dated 2013).
pKd: −log10 of the molar value.

target: TAAR1 (Rattus norvegicus, UniProt Q923Y9); assay: TAAR1 radioligand binding, membranes of stably transfected HEK293 cells (rat); conditions: cell marked 'rat'; radioligand [3H]-rac-2-(1,2,3,4-tetrahydro-1-naphthyl)-2-imidazoline, 4° C.; read-out: Ki (μM) mouse/rat
Description: For the construction of expression plasmids the coding sequences of human, rat and mouse TAAR 1 were amplified from genomic DNA essentially as described by Lindemann et al.. The Expand High Fidelity PCR System (Roche Diagnostics) was used with 1.5 mM Mg^2+ and purified PCR products were cloned into pCR2.1-TOPO cloning vector (Invitrogen) following the instructions of the manufacturer. PCR products were subcloned into the pIRESneo2 vector (BD Clontech, Palo Alto, Calif.), and expression vectors were sequence verified before introduction in cell lines.
HEK293 cells (ATCC #CRL-1573) were cultured essentially as described Lindemann et al. (2005). For the generation of stably transfected cell lines HEK293 cells were transfected with the pIRESneo2 expression plasmids containing the TAAR coding sequences (described above) with Lipofectamine 2000 (Invitrogen) according to the instructions of the manufacturer, and 24 hrs post transfection the culture medium was supplemented with 1 mg/ml G418 (Sigma, Buchs, Switzerland). After a culture period of about 10 d clones were isolated, expanded and tested for responsiveness to trace amines (all compounds purchased from Sigma) with the cAMP Biotrak Enzyme immunoassay (EIA) System (Amersham) following the non-acetylation EIA procedure provided by the manufacturer.
Cells at confluence were rinsed with ice-cold phosphate buffered saline without Ca^2+ and Mg^2+ containing 10 mM EDTA and pelleted by centrifugation at 1000 rpm for 5 min at 4° C. The pellet was then washed twice with ice-cold phosphate buffered saline and cell pellet was frozen immediately by immersion in liquid nitrogen and stored until use at −80° C. Cell pellet was then suspended in 20 ml HEPES-NaOH (20 mM), pH 7.4 containing 10 mM EDTA, and homogenized with a Polytron (PT 3000, Kinematica) at 10,000 rpm for 10 s. The homogenate was centrifuged at 48,000×g for 30 min at 4° C. and the pellet resuspended in 20 ml HEPES-NaOH (20 mM), pH 7.4 containing 0.1 mM EDTA (buffer A), and homogenized with a Polytron at 10,000 rpm for 10 s. The homogenate was then centrifuged at 48,000×g for 30 min at 4° C. and the pellet resuspended in 20 ml buffer A, and homogenized with a Polytron at 10,000 rpm for 10 s. Protein concentration was determined by the method of Pierce (Rockford, Ill.). The homogenate was then centrifuged at 48,000×g for 10 min at 4° C., resuspended in HEPES-NaOH (20 mM), pH 7.0 including MgCl2 (10 mM) and […] homogenized with a Polytron at 10,000 rpm for 10 s.
Binding assay was performed at 4° C. in a final volume of 1 ml, and with an incubation time of 30 min. […] Non-specific binding was defined as the amount of [^3H]-rac-2-(1,2,3,4-tetrahydro-1-naphthyl)-2-imidazoline bound in the presence of the appropriate unlabelled ligand (10 μM). Competing ligands were tested in a wide range of concentrations (10 pM-30 μM). […] Each experiment was performed in duplicate. All incubations were terminated by rapid filtration through UniFilter-96 plates (Packard Instrument Company) and glass filter GF/C, pre-soaked for at least 2 h in polyethylenimine 0.3%, and using a Filtermate 96 Cell Harvester (Packard Instrument Company). The tubes and filters were then washed 3 times with 1 ml aliquots of cold buffer B. Filters were not dried and soaked in Ultima gold (45 μl/well, Packard Instrument Company) and bound radioactivity was counted by a TopCount Microplate Scintillation Counter (Packard Instrument Company).

Structure (SMILES)	Ki
CC1(c2cccc(Cl)c2F)COC(N)=N1 (racemic) [Example 311, (RS)-4-(3-Chloro-2-fluoro-phenyl)-4-methyl-4,5-dihydro-oxazol-2-ylamine]	0.0042 µM
CC1(c2ccc(F)cc2Cl)COC(N)=N1 (racemic) [Example 318, (RS)-4-(2-Chloro-4-fluoro-phenyl)-4-methyl-4,5-dihydro-oxazol-2-ylamine]	0.002 µM
Cc1cc([C@@]2(C)COC(N)=N2)ccc1Cl [Example 281, (S)-4-(4-Chloro-3-methyl-phenyl)-4-methyl-4,5-dihydro-oxazol-2-ylamine]	0.0019 µM
NC1=N[C@@H](COc2ccc(Cl)c(Cl)c2)CO1 [Example 284, (S)-4-(3,4-Dichloro-phenoxymethyl)-4,5-dihydro-oxazol-2-ylamine]	0.0028 µM
NC1=N[C@@H](COc2cc(Cl)cc(Cl)c2)CO1 [Example 285, (S)-4-(3,5-Dichloro-phenoxymethyl)-4,5-dihydro-oxazol-2-ylamine]	0.0045 µM
CCC(C[C@H]1COC(N)=N1)c1cccc(Cl)c1 (stereo partly drawn) [Example 287, (S)-4-[2-(3-Chloro-phenyl)-butyl]-4,5-dihydro-oxazol-2-ylamine]	0.0027 µM
NC1=N[C@@H](COc2ccc(Br)cc2)CO1 [Example 310, (S)-4-(4-Bromo-phenoxymethyl)-4,5-dihydro-oxazol-2-ylamine]	0.009 µM
CC[C@]1(c2ccc(Cl)cc2)COC(N)=N1 [Example 313, (S)-4-(4-Chloro-phenyl)-4-ethyl-4,5-dihydro-oxazol-2-ylamine]	0.005 µM
Cc1ccc(Cl)cc1[C@H]1COC(N)=N1 [Example 314, (+)-(S)-4-(5-Chloro-2-methyl-phenyl)-4,5-dihydro-oxazol-2-ylamine]	0.003 µM
NC1=N[C@H](c2ccc(Br)cc2Cl)CO1 [Example 315, (−)-(R)-4-(4-Bromo-2-chloro-phenyl)-4,5-dihydro-oxazol-2-ylamine]	0.0016 µM
NC1=N[C@@H](c2ccc(Br)cc2Cl)CO1 [Example 316, (+)-(S)-4-(4-Bromo-2-chloro-phenyl)-4,5-dihydro-oxazol-2-ylamine]	0.0003 µM
NC1=N[C@@H](c2ccc(Br)c(F)c2)CO1 [Example 321, (+)-(S)-4-(4-Bromo-3-fluoro-phenyl)-4,5-dihydro-oxazol-2-ylamine]	0.0014 µM
NC1=N[C@@H](CCc2ccccc2Br)CO1 [Example 322, (S)-4-[2-(2-Bromo-phenyl)-ethyl]-4,5-dihydro-oxazol-2-ylamine]	0.002 µM

test system: TAAR1; assay: TAAR1 radioligand binding, membranes of stably transfected HEK293 cells (mouse); conditions: TAAR1 binding assay, species not stated; read-out: calculated Kd value of the radioligand
In short: (§1)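 Competition binding on membranes from HEK293 cells stably expressing the TAAR1 species ortholog, in HEPES-NaOH pH 7.0 with 10 mM MgCl2 and 2 mM CaCl2, 30 min at 4° C with [3H]-rac-2-(1,2,3,4-tetrahydro-1-naphthyl)-2-imidazoline. Competitors 10 pM–30 μM, duplicates; non-specific binding with 10 μM unlabelled ligand; filtration and scintillation counting.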

Structure (SMILES)	pKd
c1ccc2c(c1)CCCC2C1=NCCN1 (racemic) [[^3H]-rac-2-(1,2,3,4-tetrahydro-1-naphthyl)-2-imidazoline, reference compound]	7.22

target: TAAR1 (Mus musculus, UniProt Q923Y8); assay: as above; conditions: mouse/rat; cell not marked 'rat'; radioligand [3H]-rac-2-(1,2,3,4-tetrahydro-1-naphthyl)-2-imidazoline, 4° C.; read-out: Ki (μM) mouse/rat
In short: as §1

Structure (SMILES)	Ki
NC1=N[C@@H](c2ccc(Br)c(Cl)c2)CO1 [Example 330, (+)-(S)-4-(4-Bromo-3-chloro-phenyl)-4,5-dihydro-oxazol-2-ylamine]	0.0008 µM
NC1=N[C@@H](CCc2cc(Cl)ccc2Cl)CO1 [Example 333, (S)-4-[2-(2,5-Dichloro-phenyl)-ethyl]-4,5-dihydro-oxazol-2-ylamine]	0.0021 µM
NC1=N[C@@H](c2ccc(Br)cc2C(F)(F)F)CO1 [Example 338, (+)-(S)-4-(4-Bromo-2-trifluoromethyl-phenyl)-4,5-dihydro-oxazol-2-ylamine]	0.0031 µM
CCC(C[C@H]1COC(N)=N1)c1cccc(F)c1 (stereo partly drawn) [Example 340, (S)-4-[2-(3-Fluoro-phenyl)-butyl]-4,5-dihydro-oxazol-2-ylamine]	0.002 µM
NC1=N[C@@H](c2cc(Cl)ccc2C(F)(F)F)CO1 [Example 341, (+)-(S)-4-(5-Chloro-2-trifluoromethyl-phenyl)-4,5-dihydro-oxazol-2-ylamine]	0.0046 µM
NC1=N[C@@H](CC2(c3ccccc3)CC2)CO1 [Example 342, (S)-4-(1-Phenyl-cyclopropylmethyl)-4,5-dihydro-oxazol-2-ylamine]	0.0045 µM
NC1=N[C@@H](COc2cccc(Cl)c2)CO1 [Example 343, (S)-4-(3-Chloro-phenoxymethyl)-4,5-dihydro-oxazol-2-ylamine]	0.0028 µM
Cc1cc(F)ccc1[C@H]1COC(N)=N1 [Example 348, (+)-(S)-4-(4-Fluoro-2-methyl-phenyl)-4,5-dihydro-oxazol-2-ylamine]	0.0036 µM
NC1=N[C@@H](COCc2ccccc2)CO1 [Example 350, (S)-4-Benzyloxymethyl-4,5-dihydro-oxazol-2-ylamine]	0.0064 µM
NC1=N[C@@H](COc2ccc(F)cc2F)CO1 [Example 353, (S)-4-(2,4-Difluoro-phenoxymethyl)-4,5-dihydro-oxazol-2-ylamine]	0.0014 µM
NC1=N[C@@H](COc2ccccc2F)CO1 [Example 354, (S)-4-(2-Fluoro-phenoxymethyl)-4,5-dihydro-oxazol-2-ylamine]	0.0003 µM
CCC(C[C@H]1COC(N)=N1)c1cccc(Cl)c1F (stereo partly drawn) [Example 355, (S)-4-[2-(3-Chloro-2-fluoro-phenyl)-butyl]-4,5-dihydro-oxazol-2-ylamine]	0.0043 µM
CCC(C[C@H]1COC(N)=N1)c1ccc(F)c(Cl)c1 (stereo partly drawn) [Example 356, (S)-4-[2-(3-Chloro-4-fluoro-phenyl)-butyl]-4,5-dihydro-oxazol-2-ylamine]	0.0043 µM
CCC(C[C@H]1COC(N)=N1)c1cc(F)cc(Cl)c1 (stereo partly drawn) [Example 357, (S)-4-[2-(3-Chloro-5-fluoro-phenyl)-butyl]-4,5-dihydro-oxazol-2-ylamine]	0.0068 µM
CCC(C[C@H]1COC(N)=N1)c1cc(Cl)ccc1F (stereo partly drawn) [Example 358, (S)-4-[2-(5-Chloro-2-fluoro-phenyl)-butyl]-4,5-dihydro-oxazol-2-ylamine]	0.0084 µM
CCc1cc(Cl)ccc1[C@H]1COC(N)=N1 [Example 364, (+)-(S)-4-(4-Chloro-2-ethyl-phenyl)-4,5-dihydro-oxazol-2-ylamine]	0.002 µM
NC1=N[C@@H](c2ccc(Br)cc2F)CO1 [Example 367, (+)-(S)-4-(4-Bromo-2-fluoro-phenyl)-4,5-dihydro-oxazol-2-ylamine]	0.001 µM
NC1=N[C@@H](c2ccc(Cl)cc2C2CC2)CO1 [Example 369, (+)-(S)-4-(4-Chloro-2-cyclopropyl-phenyl)-4,5-dihydro-oxazol-2-ylamine]	0.0009 µM
NC1=N[C@@H](CSc2ccc(Cl)cc2)CO1 [Example 370, (R)-4-(4-Chloro-phenylsulfanylmethyl)-4,5-dihydro-oxazol-2-ylamine]	0.0037 µM
Cc1ccc([C@H]2COC(N)=N2)cc1Cl [Example 374, (+)-(S)-4-(3-Chloro-4-methyl-phenyl)-4,5-dihydro-oxazol-2-ylamine]	0.0006 µM
